Data as given in patent publication US9833497B2, “Human originated EGF domain proteins and use of the same” (CHENGDU SOURCEBIO LIMITED-LIABILITY COMPANY, priority 2013, dated 2017).

Tests used:
Type in all cases: cell-based
[1] = tested on: Moraxella catarrhalis; assay: MIC against Gram-negative bacteria: Moraxella catarrhalis; conditions: 5×10^5 CFU/mL
Method in brief: (§1)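 Purified recombinant human EGF domain proteins are tested by broth dilution in LB against a 5×10^5 CFU/mL inoculum, with two-fold serial dilutions run in triplicate. Plates are incubated at 37° C with shaking, and the MIC is read as the lowest protein concentration without growth.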

[2] = tested on: Enterobacter cloacae; assay: MIC against Gram-negative bacteria: Enterobacter cloacae; conditions: 5×10^5 CFU/mL
Method in brief: as §1

[3] = tested on: Klebsiella pneumonia; assay: MIC against Gram-negative bacteria: Klebsiella pneumonia; conditions: 5×10^5 CFU/mL
Method in brief: as §1

[4] = tested on: Proteus vulgaris; assay: MIC against Gram-negative bacteria: Proteus vulgaris; conditions: 5×10^5 CFU/mL
Method in brief: as §1

[5] = tested on: Citrobacter diversus; assay: MIC against Gram-negative bacteria: Citrobacter diversus; conditions: 5×10^5 CFU/mL
Method in brief: as §1

[6] = tested on: E. coli BL21; assay: MIC against Gram-negative bacteria: E. coli BL21; conditions: 5×10^5 CFU/mL
Method in brief: as §1

[7] = tested on: Serratia marcescens; assay: MIC against Gram-negative bacteria: Serratia marcescens; conditions: 5×10^5 CFU/mL
Method in brief: as §1

[8] = tested on: E. coli DH5α; assay: Antibacterial activity: MIC and growth curve against E. coli DH5α in 96-well plate; conditions: minimal inhibitory concentration against E. coli DH5α; 96-well plate, 5×10^5 CFU/mL, 37° C., judged after 8 h
Method in brief: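 Log-phase DH5α (OD600 about 0.5, 37° C, 185 rpm in LB) was pelleted, resuspended in fresh LB and seeded at 5×10^5 CFU/mL with recombinant protein at 50, 25 and 12.5 μg/mL (two-fold series), in triplicate. Plates were shaken at 175 rpm, 37° C, and OD600 was read every 30 min. MIC was the lowest concentration with no growth.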

[9] = tested on: Proteus mirabilis; assay: MIC against Gram-negative bacteria: Proteus mirabilis; conditions: 5×10^5 CFU/mL
Method in brief: as §1

[10] = tested on: Pseudomonas aeruginosa; assay: MIC against Gram-negative bacteria: Pseudomonas aeruginosa; conditions: 5×10^5 CFU/mL
Method in brief: as §1

[11] = tested on: Aeromonas hydrophila; assay: MIC against Gram-negative bacteria: Aeromonas hydrophila; conditions: 5×10^5 CFU/mL
Method in brief: as §1

[12] = 10 h cultivation at 37° C., two-fold serial dilution
[13] = Moraxella catarrhalis, 96-well plate, 37° C., 10 h
[14] = Enterobacter cloacae, 96-well plate, 37° C., 10 h
[15] = Klebsiella pneumonia, 96-well plate, 37° C., 10 h
[16] = Proteus vulgaris, 96-well plate, 37° C., 10 h
[17] = Citrobacter diversus, 96-well plate, 37° C., 10 h
[18] = Serratia marcescens, 96-well plate, 37° C., 10 h
[19] = Proteus mirabilis, 96-well plate, 37° C., 10 h
[20] = Pseudomonas aeruginosa, 96-well plate, 37° C., 10 h
[21] = Aeromonas hydrophila, 96-well plate, 37° C., 10 h
[22] = M. catarrhalis, 10 h cultivation at 37° C.
[23] = E. cloacae, 10 h cultivation at 37° C.
[24] = K. pneumonia, 10 h cultivation at 37° C.
[25] = P. vulgaris, 10 h cultivation at 37° C.
[26] = C. diversus, 10 h cultivation at 37° C.
[27] = S. marcescens, 10 h cultivation at 37° C.
[28] = P. mirabilis, 10 h cultivation at 37° C.
[29] = P. aeruginosa, 10 h cultivation at 37° C.
[30] = A. hydrophila, 10 h cultivation at 37° C.

With “PRT1157 (DVSEFSLVPCQNGTDCIKISNDVMCICSPIFTDLLCK; listed as Homo sapiens)” the “MIC M. catarrhalis” value [1, 12] was 25 µg/mL, the “MIC E. cloacae” value [2, 12] was 12.5 µg/mL and the “MIC K. pneumonia” value [3, 12] was 25 µg/mL. The “MIC P. vulgaris” value [4, 12] was 25 µg/mL, the “MIC C. diversus” value [5, 12] was 50 µg/mL and the “MIC E. coli BL21” value [6, 12] was 25 µg/mL. For the same substance, the “MIC S. marcescens” value [7, 12] was 50 µg/mL, the MIC [8] was 12.5 µg/mL and the “MIC P. mirabilis” value [9, 12] was 12.5 µg/mL. The “MIC P. aeruginosa” value [10, 12] was 50 µg/mL and the “MIC A. hydrophila” value [11, 12] was 25 µg/mL.

“PRT610 (CSCDPSGSIDECNIETGRCVCKDNVEGFNCERCKPGFFNLESSNPRGCTP; listed as Homo sapiens)” was tested, and the “MIC M. catarrhalis” value ([1]; 96-well plate, 37° C., 10 h) was 12.5 µg/mL, the “MIC E. cloacae” value ([2]; 96-well plate, 37° C., 10 h) was 50 µg/mL and the “MIC K. pneumonia” value ([3]; 96-well plate, 37° C., 10 h) was 25 µg/mL. The “MIC P. vulgaris” value ([4]; 96-well plate, 37° C., 10 h) was 12.5 µg/mL, the “MIC C. diversus” value ([5]; 96-well plate, 37° C., 10 h) was 50 µg/mL and the “MIC E. coli BL21” value ([6]; 96-well plate, 37° C., 10 h) was 25 µg/mL. For the same substance, the “MIC S. marcescens” value ([7]; 96-well plate, 37° C., 10 h) was 50 µg/mL, the MIC [8] was 50 µg/mL and the “MIC P. mirabilis” value ([9]; 96-well plate, 37° C., 10 h) was 50 µg/mL. For the same substance, the “MIC P. aeruginosa” value ([10]; 96-well plate, 37° C., 10 h) was 12.5 µg/mL and the “MIC A. hydrophila” value ([11]; 96-well plate, 37° C., 10 h) was 12.5 µg/mL.

For “PRT38 (VRDLCGQRTTDACEQLCDPETGECSCHEGYAPDPVHRHLCV; listed as Homo sapiens)”, the “MIC (μg/mL) M. catarrhalis” value [1, 13] was 12.5 µg/mL, the “MIC (μg/mL) E. cloacae” value [2, 14] was 25 µg/mL and the “MIC (μg/mL) K. pneumonia” value [3, 15] was 50 µg/mL. The “MIC (μg/mL) P. vulgaris” value [4, 16] was 50 µg/mL, the “MIC (μg/mL) C. diversus” value [5, 17] was 50 µg/mL and the “MIC (μg/mL) E. coli BL21” value ([6]; 96-well plate, 37° C., 10 h) was 25 µg/mL. For the same substance, the “MIC (μg/mL) S. marcescens” value [7, 18] was 50 µg/mL, the MIC [8] was 50 µg/mL and the “MIC (μg/mL) P. mirabilis” value [9, 19] was 25 µg/mL. For the same substance, the “MIC (μg/mL) P. aeruginosa” value [10, 20] was 12.5 µg/mL and the “MIC (μg/mL) A. hydrophila” value [11, 21] was 100 µg/mL.

For “PRT259 (GGCHTDALCSYVGPGQSRCTCKLGFAGDGYQC; listed as Homo sapiens)”, the “MIC (μg/mL) M. catarrhalis” value [1, 22] was 12.5 µg/mL, the “MIC (μg/mL) E. cloacae” value [2, 23] was 50 µg/mL and the “MIC (μg/mL) K. pneumonia” value [3, 24] was 12.5 µg/mL. The “MIC (μg/mL) P. vulgaris” value [4, 25] was 50 µg/mL, the “MIC (μg/mL) C. diversus” value [5, 26] was 50 µg/mL and the “MIC (μg/mL) E. coli BL21” value ([6]; 10 h cultivation at 37° C.) was 25 µg/mL. For the same substance, the “MIC (μg/mL) S. marcescens” value [7, 27] was 25 µg/mL, the MIC [8] was 12.5 µg/mL and the “MIC (μg/mL) P. mirabilis” value [9, 28] was 25 µg/mL. The “MIC (μg/mL) P. aeruginosa” value [10, 29] was 50 µg/mL and the “MIC (μg/mL) A. hydrophila” value [11, 30] was 12.5 µg/mL.

With “PRT763 (ALDRCALNTHGCEHICVNDRSGSYHCECYEGYTLNEDRKTCS; listed as Homo sapiens)” the “MIC (μg/mL) M. catarrhalis” value [1, 22] was 12.5 µg/mL, the “MIC (μg/mL) E. cloacae” value [2, 23] was 12.5 µg/mL and the “MIC (μg/mL) K. pneumonia” value [3, 24] was 25 µg/mL. For the same substance, the “MIC (μg/mL) P. vulgaris” value [4, 25] was 50 µg/mL, the “MIC (μg/mL) C. diversus” value [5, 26] was 12.5 µg/mL and the “MIC (μg/mL) E. coli BL21” value ([6]; 10 h cultivation at 37° C.) was 50 µg/mL. The “MIC (μg/mL) S. marcescens” value [7, 27] was 25 µg/mL, the MIC [8] was 25 µg/mL and the “MIC (μg/mL) P. mirabilis” value [9, 28] was 12.5 µg/mL. For the same substance, the “MIC (μg/mL) P. aeruginosa” value [10, 29] was 12.5 µg/mL and the “MIC (μg/mL) A. hydrophila” value [11, 30] was 25 µg/mL.

For “PRT1253 (WPRQCPCLVDGARYWPGQRIKADCQLCICQDGRPRRCR; listed as Homo sapiens)”, the “MIC against M. catarrhalis” value [1, 13] was 12.5 µg/mL, the “MIC against E. cloacae” value [2, 14] was 12.5 µg/mL and the “MIC against K. pneumonia” value [3, 15] was 25 µg/mL. For the same substance, the “MIC against P. vulgaris” value [4, 16] was 50 µg/mL, the “MIC against C. diversus” value [5, 17] was 25 µg/mL and the “MIC against E. coli BL21” value ([6]; 96-well plate, 37° C., 10 h) was 12.5 µg/mL. The “MIC against S. marcescens” value [7, 18] was 25 µg/mL, the MIC [8] was 50 µg/mL and the “MIC against P. mirabilis” value [9, 19] was 25 µg/mL. The “MIC against P. aeruginosa” value [10, 20] was 50 µg/mL and the “MIC against A. hydrophila” value [11, 21] was 50 µg/mL.

In the case of “PRT1209 (ATEDCASNPCQNGGVCNPSPAGGYYCKCSALYIGTHCE; listed as Homo sapiens)”, the “MIC against M. catarrhalis” value [1, 13] is reported as 12.5 µg/mL, the “MIC against E. cloacae” value [2, 14] is reported as 25 µg/mL and the “MIC against K. pneumonia” value [3, 15] is reported as 50 µg/mL. For the same substance, the “MIC against P. vulgaris” value [4, 16] was 25 µg/mL, the “MIC against C. diversus” value [5, 17] was 25 µg/mL and the “MIC against E. coli BL21” value ([6]; 96-well plate, 37° C., 10 h) was 12.5 µg/mL. For the same substance, the “MIC against S. marcescens” value [7, 18] was 12.5 µg/mL, the MIC [8] was 50 µg/mL and the “MIC against P. mirabilis” value [9, 19] was 12.5 µg/mL. For the same substance, the “MIC against P. aeruginosa” value [10, 20] was 25 µg/mL and the “MIC against A. hydrophila” value [11, 21] was 12.5 µg/mL.
